Read-outs that look alike come from different tables or passages of the source.
Target: GST-Bcl-2 (Homo sapiens (Human), UniProt P10415)
Experiment: Time Resolved-Fluorescence Resonance Energy Transfer (TR-FRET) Bcl-2 binding assay
Outline: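 Competition TR-FRET: GST-Bcl-2 with fluorescent Bak peptide probe and Tb-anti-GST antibody, compounds serially diluted from 50 μM (2× start, 10% DMSO).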

[1] = GST-Bcl-2 1 nM, F-Bak peptide probe 100 nM, Tb-anti-GST antibody 1 nM, Ki by Wang's equation

GST-Bcl-2, sequence (P10415 whole entry): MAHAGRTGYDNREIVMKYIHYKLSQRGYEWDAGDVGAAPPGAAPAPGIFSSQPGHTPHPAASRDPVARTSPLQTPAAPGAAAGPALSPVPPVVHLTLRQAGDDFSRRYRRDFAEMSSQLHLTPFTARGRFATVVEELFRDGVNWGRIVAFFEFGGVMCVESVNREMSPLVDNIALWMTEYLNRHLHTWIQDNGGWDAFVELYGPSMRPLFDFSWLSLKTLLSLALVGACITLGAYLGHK

SMILES | Ki [1] | Ki
CC1(C)CCC(CN2CCN(c3ccc(C(=O)NS(=O)(=O)c4ccc(NC5CCN(CCN6CCOCC6)CC5)c([N+](=O)[O-])c4)c(Oc4cccc(Cl)c4)c3)CC2)=C(c2ccc(Cl)cc2)C1 [Example 190, 2-(3-chlorophenoxy)-4-(4-{[2-(4-chlorophenyl)-4,4-dimethylcyclohex-1-en-1-yl]methyl}piperazin-1-yl)-N-[(4-{[1-(2-morpholin-4-ylethyl)piperidin-4-yl]amino}-3-nitrophenyl)sulfonyl]benzamide] | 0.077 nM | –
CN1CCC(O)(CNc2ccc(S(=O)(=O)NC(=O)c3ccc(N4CCN(CC5=C(c6ccc(Cl)cc6)CC(C)(C)CC5)CC4)cc3Oc3ccccc3Cl)cc2[N+](=O)[O-])CC1 [Example 192, 2-(2-chlorophenoxy)-4-(4-{[2-(4-chlorophenyl)-4,4-dimethylcyclohex-1-en-1-yl]methyl}piperazin-1-yl)-N-[(4-{[(4-hydroxy-1-methylpiperidin-4-yl)methyl]amino}-3-nitrophenyl)sulfonyl]benzamide] | 0.024 nM | –
CC1(C)CCC(CN2CCN(c3ccc(C(=O)NS(=O)(=O)c4ccc(NC5CCN(C6CCOCC6)CC5)c([N+](=O)[O-])c4)c(Oc4cc5cc[nH]c5cc4F)c3)CC2)=C(c2ccc(Cl)cc2)C1 [Example 193, 4-(4-{[2-(4-chlorophenyl)-4,4-dimethylcyclohex-1-en-1-yl]methyl}piperazin-1-yl)-2-[(6-fluoro-1H-indol-5-yl)oxy]-N-({3-nitro-4-[(1-tetrahydro-2H-pyran-4-ylpiperidin-4-yl)amino]phenyl}sulfonyl)benzamide] | 0.064 nM | –
CN1CC[C@H](Nc2ccc(S(=O)(=O)NC(=O)c3ccc(N4CCN(CC5=C(c6ccc(Cl)cc6)CC(C)(C)CC5)CC4)cc3Oc3cccc(Cl)c3)cc2[N+](=O)[O-])C1 [Example 194, 2-(3-chlorophenoxy)-4-(4-{[2-(4-chlorophenyl)-4,4-dimethylcyclohex-1-en-1-yl]methyl}piperazin-1-yl)-N-[(4-{[(3S)-1-methylpyrrolidin-3-yl]amino}-3-nitrophenyl)sulfonyl]benzamide] | 0.317 nM | –
CN1CC[C@@H](Nc2ccc(S(=O)(=O)NC(=O)c3ccc(N4CCN(CC5=C(c6ccc(Cl)cc6)CC(C)(C)CC5)CC4)cc3Oc3cccc(Cl)c3)cc2[N+](=O)[O-])C1 [Example 195, 2-(3-chlorophenoxy)-4-(4-{[2-(4-chlorophenyl)-4,4-dimethylcyclohex-1-en-1-yl]methyl}piperazin-1-yl)-N-[(4-{[(3R)-1-methylpyrrolidin-3-yl]amino}-3-nitrophenyl)sulfonyl]benzamide] | 0.684 nM | –
CN1CCC(Nc2ccc(S(=O)(=O)NC(=O)c3ccc(N4CCN(CC5=C(c6ccc(Cl)cc6)CC(C)(C)CC5)CC4)cc3Oc3cccc(-c4ccc[nH]4)c3)cc2[N+](=O)[O-])CC1 [Example 197, 4-(4-{[2-(4-chlorophenyl)-4,4-dimethylcyclohex-1-en-1-yl]methyl}piperazin-1-yl)-N-({4-[(1-methylpiperidin-4-yl)amino]-3-nitrophenyl}sulfonyl)-2-[3-(1H-pyrrol-2-yl)phenoxy]benzamide] | 0.22 nM | –
CN1CCC(O)(CNc2ccc(S(=O)(=O)NC(=O)c3ccc(N4CCN(CC5=C(c6ccc(Cl)cc6)CC(C)(C)CC5)CC4)cc3Oc3cccc(F)c3)cc2[N+](=O)[O-])CC1 [Example 198, 4-(4-{[2-(4-chlorophenyl)-4,4-dimethylcyclohex-1-en-1-yl]methyl}piperazin-1-yl)-2-(3-fluorophenoxy)-N-[(4-{[(4-hydroxy-1-methylpiperidin-4-yl)methyl]amino}-3-nitrophenyl)sulfonyl]benzamide] | < 0.01 nM | –
CN1CCN(Nc2ccc(S(=O)(=O)NC(=O)c3ccc(N4CCN(CC5=C(c6ccc(Cl)cc6)CC(C)(C)CC5)CC4)cc3Oc3cccc(Cl)c3)cc2[N+](=O)[O-])CC1 [Example 199, 2-(3-chlorophenoxy)-4-(4-{[2-(4-chlorophenyl)-4,4-dimethylcyclohex-1-en-1-yl]methyl}piperazin-1-yl)-N-({4-[(4-methylpiperazin-1-yl)amino]-3-nitrophenyl}sulfonyl)benzamide] | 0.244 nM | –
CN1CCC(Nc2ccc(S(=O)(=O)NC(=O)c3ccc(N4CCN(CC5=C(c6ccc(Cl)cc6)CC(C)(C)CC5)CC4)cc3Oc3cc4cc[nH]c4c(F)c3F)cc2[N+](=O)[O-])CC1 [Example 200, 4-(4-{[2-(4-chlorophenyl)-4,4-dimethylcyclohex-1-en-1-yl]methyl}piperazin-1-yl)-2-[(6,7-difluoro-1H-indol-5-yl)oxy]-N-({4-[(1-methylpiperidin-4-yl)amino]-3-nitrophenyl}sulfonyl)benzamide] | 0.081 nM | –
CC1(C)CCC(CN2CCN(c3ccc(C(=O)NS(=O)(=O)c4ccc(NC5CCN(C6CCOCC6)CC5)c([N+](=O)[O-])c4)c(Oc4cc5cc[nH]c5c(F)c4F)c3)CC2)=C(c2ccc(Cl)cc2)C1 [Example 201, 4-(4-{[2-(4-chlorophenyl)-4,4-dimethylcyclohex-1-en-1-yl]methyl}piperazin-1-yl)-2-[(6,7-difluoro-1H-indol-5-yl)oxy]-N-({3-nitro-4-[(1-tetrahydro-2H-pyran-4-ylpiperidin-4-yl)amino]phenyl}sulfonyl)benzamide] | 0.01 nM | –
CN1CCC(Nc2ccc(S(=O)(=O)NC(=O)c3ccc(N4CCN(CC5=C(c6ccc(Cl)cc6)CC(C)(C)CC5)CC4)cc3Oc3cccc4c3ccn4C(=O)OC(C)(C)C)cc2[N+](=O)[O-])CC1 [Example 202, tert-butyl 4-(5-(4-{[2-(4-chlorophenyl)-4,4-dimethylcyclohex-1-en-1-yl]methyl}piperazin-1-yl)-2-{[({4-[(1-methylpiperidin-4-yl)amino]-3-nitrophenyl}sulfonyl)amino]carbonyl}phenoxy)-1H-indole-1-carboxylate] | 20 nM | –
CN(C)C1CCC(Nc2ccc(S(=O)(=O)NC(=O)c3ccc(N4CCN(CC5=C(c6ccc(Cl)cc6)CC(C)(C)CC5)CC4)cc3Oc3cccc(Cl)c3)cc2[N+](=O)[O-])CC1 (centres unmarked) [Example 203, 2-(3-chlorophenoxy)-4-(4-{[2-(4-chlorophenyl)-4,4-dimethylcyclohex-1-en-1-yl]methyl}piperazin-1-yl)-N-[(4-{[4-(dimethylamino)cyclohexyl]amino}-3-nitrophenyl)sulfonyl]benzamide] | 0.084 nM | –
CCN(CC)C1CCC(Nc2ccc(S(=O)(=O)NC(=O)c3ccc(N4CCN(CC5=C(c6ccc(Cl)cc6)CC(C)(C)CC5)CC4)cc3Oc3cccc(Cl)c3)cc2[N+](=O)[O-])CC1 (centres unmarked) [Example 204, 2-(3-chlorophenoxy)-4-(4-{[2-(4-chlorophenyl)-4,4-dimethylcyclohex-1-en-1-yl]methyl}piperazin-1-yl)-N-[(4-{[4-(diethylamino)cyclohexyl]amino}-3-nitrophenyl)sulfonyl]benzamide] | 0.075 nM | –
CC1(C)CCC(CN2CCN(c3ccc(C(=O)NS(=O)(=O)c4ccc(N[C@H]5CC[C@H](N6CCOCC6)CC5)c([N+](=O)[O-])c4)c(Oc4cccc(Cl)c4)c3)CC2)=C(c2ccc(Cl)cc2)C1 [Example 205, Trans-2-(3-chlorophenoxy)-4-(4-{[2-(4-chlorophenyl)-4,4-dimethylcyclohex-1-en-1-yl]methyl}piperazin-1-yl)-N-({4-[(4-morpholin-4-ylcyclohexyl)amino]-3-nitrophenyl}sulfonyl)benzamide] | – | 0.153 nM
CC(c1ccccc1-c1ccc(Cl)cc1)N1CCN(c2ccc(C(=O)NS(=O)(=O)c3ccc(NC4CCN(C)CC4)c([N+](=O)[O-])c3)c(Oc3ccccc3Cl)c2)CC1 (centres unmarked) [Example 206, 4-{4-[1-(4′-chloro-1,1′-biphenyl-2-yl)ethyl]piperazin-1-yl}-2-(2-chlorophenoxy)-N-({4-[(1-methylpiperidin-4-yl)amino]-3-nitrophenyl}sulfonyl)benzamide] | 0.037 nM | –
CN1CCC(Nc2ccc(S(=O)(=O)NC(=O)c3ccc(N4CCN(CC5=C(c6ccc(Cl)cc6)CC(C)(C)CC5)CC4)cc3Oc3ccc(O)cc3Cl)cc2[N+](=O)[O-])CC1 [Example 207, 2-(2-chloro-4-hydroxyphenoxy)-4-(4-{[2-(4-chlorophenyl)-4,4-dimethylcyclohex-1-en-1-yl]methyl}piperazin-1-yl)-N-({4-[(1-methylpiperidin-4-yl)amino]-3-nitrophenyl}sulfonyl)benzamide] | 0.074 nM | –
CN1CCN(Nc2ccc(S(=O)(=O)NC(=O)c3ccc(N4CCN(CC5=C(c6ccc(Cl)cc6)CC(C)(C)CC5)CC4)cc3Oc3ccc(O)cc3Cl)cc2[N+](=O)[O-])CC1 [Example 208, 2-(2-chloro-4-hydroxyphenoxy)-4-(4-{[2-(4-chlorophenyl)-4,4-dimethylcyclohex-1-en-1-yl]methyl}piperazin-1-yl)-N-({4-[(4-methylpiperazin-1-yl)amino]-3-nitrophenyl}sulfonyl)benzamide] | 0.261 nM | –
CN1CCC(Nc2ccc(S(=O)(=O)NC(=O)c3ccc(N4CCN(CC5=C(c6ccc(Cl)cc6)CC(C)(C)CC5)CC4)cc3Oc3cc(F)cc4[nH]ccc34)cc2[N+](=O)[O-])CC1 [Example 209, 4-(4-{[2-(4-chlorophenyl)-4,4-dimethylcyclohex-1-en-1-yl]methyl}piperazin-1-yl)-2-[(6-fluoro-1H-indol-4-yl)oxy]-N-({4-[(1-methylpiperidin-4-yl)amino]-3-nitrophenyl}sulfonyl)benzamide] | < 0.01 nM | –
CC1(C)CCC(CN2CCN(c3ccc(C(=O)NS(=O)(=O)c4ccc(NC5CCN(C6CCOCC6)CC5)c([N+](=O)[O-])c4)c(Oc4cc(F)cc5[nH]ccc45)c3)CC2)=C(c2ccc(Cl)cc2)C1 [Example 210, 4-(4-{[2-(4-chlorophenyl)-4,4-dimethylcyclohex-1-en-1-yl]methyl}piperazin-1-yl)-2-[(6-fluoro-1H-indol-4-yl)oxy]-N-({3-nitro-4-[(1-tetrahydro-2H-pyran-4-ylpiperidin-4-yl)amino]phenyl}sulfonyl)benzamide] | 0.02 nM | –
CN1CCN(Nc2ccc(S(=O)(=O)NC(=O)c3ccc(N4CCN(CC5=C(c6ccc(Cl)cc6)CC(C)(C)CC5)CC4)cc3Oc3ccc(O)cc3Cl)cc2S(=O)(=O)C(F)(F)F)CC1 [Example 211, 2-(2-chloro-4-hydroxyphenoxy)-4-(4-{[2-(4-chlorophenyl)-4,4-dimethylcyclohex-1-en-1-yl]methyl}piperazin-1-yl)-N-({4-[(4-methylpiperazin-1-yl)amino]-3-[(trifluoromethyl)sulfonyl]phenyl}sulfonyl)benzamide] | 1.34 nM | –
